According to patent publication US12433903B2 (priority 2021, dated 2025):
Values joined by “and” are separate entries in the source; they are usually repeats but may differ in a detail not shown here. Identical values can stand only once.

How the values were obtained:
[1] = Quantification of CBG and CBG glucuronide in rat plasma and brain after oral gavage; type: in vivo, Sprague-Dawley rat; conditions: for CBG concentration in rat plasma (Day 21) / CBG concentration in rat brain tissue (Day 21) / CBG concentration in rat plasma (Day 1): individual rats; for CBG concentration in rat brain tissue (Day 21) / CBG concentration in rat brain tissue (Day 21), Average: 24 hrs post Rx
Procedure: The purpose of this study was to quantify cannabigerol (CBG) in rat plasma and brain.
Seven- to nine-week-old male and female Sprague-Dawley received either a single dose or once daily dosing for 21 clays of vehicle or CBG at three different dosage levels as shown in the Table below.
Approximately 0.2-0.25 mL blood was collected during the first 24 hours after the single dose, and at multiple times points after the terminal dose for the animals receiving daily dosing for 21 days. Liver, kidney, and colon samples were collected and fixed in 10% NBF for 48 hours, then stored in 70% ethanol at room temperature. Brain samples were collected and flash frozen.
Analytical curves were constructed using non-zero standards with CBG concentration ranging from 0.0025 to 2.500 μg/mL and […] in blank rat plasma samples and 1.0 to 2500 ng/mL in blank brain tissues. A blank sample was used to exclude contamination.
Instrument Used: AB SCIEX QTRAP 4500/Shimadzu Prominence LC

all the UGTs combined = experiment: UGT reaction phenotyping, all the UGTs combined; type: in vitro ADME, Human
Description: Experimental Summary: UGT Reaction Phenotyping (7 Isoforms).

[2] = system: cryopreserved hepatocytes; experiment: Hepatocyte stability and metabolite profiling, human; type: in vitro ADME; conditions: human hepatocyte samples, 40 and 60 minute
Procedure: (§1) The objective of this study was to investigate the stability of the test compound, CBG, in human, rat, dog, mouse, monkey and minipig cryopreserved hepatocytes. Follow-on metabolite profiling was performed.
(§2) CBG was incubated up to 2 hr with cryopreserved hepatocytes. Cryopreserved hepatocytes in suspension were added to test compound in supplemented media following pre-incubation to initiate the reaction and the reactions were stopped by organic solvent at the appropriate time points. The termination plates were centrifuged and sample supernatants were analysed using Cyprotex generic LC MS/MS conditions to generate intrinsic clearance values for CBG. Two control compounds for each species were included in the assay and if the values for these compounds were not within the specified limits the results were rejected and the experiment repeated.
(§3) Following the hepatocyte stability assay the samples were 59 tilized for metabolite profiling using suitable high-resolution LC-MS/MS conditions. The 40 and 60 minute human samples, 20 and 120 minute rat samples, 10 and 20 minute dog and monkey samples, 20 and 60 minute mouse samples, and 40 and 120 minute minipig samples were compared against the 0 minute control sample to establish which and how many metabolites were formed. […]
(§4) The areas and percentages reported for the parent and metabolites were calculated using the XIC data. […]

[3] = system: cryopreserved hepatocytes; experiment: Hepatocyte stability and metabolite profiling, monkey; type: in vitro ADME; conditions: monkey hepatocyte samples, 10 and 20 minute
Procedure: as §1, §2, §3, §4

[4] = system: cryopreserved hepatocytes; experiment: Hepatocyte stability and metabolite profiling, minipig; type: in vitro ADME; conditions: minipig hepatocyte samples, 40 and 120 minute
Procedure: as §1, §2, §3, §4

## CCCCCc1cc(O)c(C/C=C(\C)CCC=C(C)C)c(O)c1 [CBG, cannabigerol]
[1]; CBG 10 mg/kg oral gavage once daily, 15 min post Rx
  CBG concentration in rat plasma (Day 21): BLQ (Below Limit of Quantification (2.5 ng/mL))
[1]; CBG 10 mg/kg oral gavage once daily, 30 min post Rx
  CBG concentration in rat plasma (Day 21): BLQ (Below Limit of Quantification (2.5 ng/mL))
[1]; CBG 10 mg/kg oral gavage once daily, 1 hr post Rx
  CBG concentration in rat plasma (Day 21): BLQ (Below Limit of Quantification (2.5 ng/mL)) (4×) and 1.67 ng/mL and 2.75 ng/mL
[1]; CBG 10 mg/kg oral gavage once daily, 2 hr post Rx
  CBG concentration in rat plasma (Day 21): BLQ (Below Limit of Quantification (2.5 ng/mL)) (3×) and 5.6 ng/mL and 9.5 ng/mL and 2.72 ng/mL
[1]; CBG 10 mg/kg oral gavage once daily, 4 hr post Rx
  CBG concentration in rat plasma (Day 21): BLQ (Below Limit of Quantification (2.5 ng/mL)) (4×) and 4.73 ng/mL and 8.49 ng/mL
[1]; CBG 10 mg/kg oral gavage once daily, 8 hr post Rx
  CBG concentration in rat plasma (Day 21): BLQ (Below Limit of Quantification (2.5 ng/mL)) (4×) and 2.55 ng/mL and 4.18 ng/mL
[1]; CBG 10 mg/kg oral gavage once daily, 24 hr post Rx
  CBG concentration in rat plasma (Day 21): BLQ (Below Limit of Quantification (2.5 ng/mL))
[1]; CBG 10 mg/kg oral gavage once daily
  CBG concentration in rat brain tissue (Day 21): BLQ (Below Limit of Quantification (1.0 ng/g))
[1]; CBG 10 mg/kg oral gavage once, 15 min post Rx
  CBG concentration in rat plasma (Day 1): BLQ (Below Limit of Quantification (2.5 ng/mL))
[1]; CBG 10 mg/kg oral gavage once, 30 min post Rx
  CBG concentration in rat plasma (Day 1): BLQ (Below Limit of Quantification (2.5 ng/mL))
[1]; CBG 10 mg/kg oral gavage once, 1 hr post Rx
  CBG concentration in rat plasma (Day 1): 5.3 ng/mL and BLQ (Below Limit of Quantification (2.5 ng/mL)) (2×) and 18.6 ng/mL and 7.3 ng/mL
[1]; CBG 10 mg/kg oral gavage once, 2 hr post Rx
  CBG concentration in rat plasma (Day 1): 10.7 ng/mL and BLQ (Below Limit of Quantification (2.5 ng/mL)) and 14.6 ng/mL and 11.5 ng/mL and 12.0 ng/mL
[1]; CBG 10 mg/kg oral gavage once, 4 hr post Rx
  CBG concentration in rat plasma (Day 1): BLQ (Below Limit of Quantification (2.5 ng/mL))
[1]; CBG 10 mg/kg oral gavage once, 8 hr post Rx
  CBG concentration in rat plasma (Day 1): BLQ (Below Limit of Quantification (2.5 ng/mL))
[1]; CBG 10 mg/kg oral gavage once, 24 hr post Rx
  CBG concentration in rat plasma (Day 1): BLQ (Below Limit of Quantification (2.5 ng/mL))
[1]; CBG 30 mg/kg oral gavage once daily, 15 min post Rx
  CBG concentration in rat plasma (Day 21): BLQ (Below Limit of Quantification (2.5 ng/mL)) (3×) and 14.7 ng/mL and 4.51 ng/mL and 9.12 ng/mL
[1]; CBG 30 mg/kg oral gavage once daily, 30 min post Rx
  CBG concentration in rat plasma (Day 21): BLQ (Below Limit of Quantification (2.5 ng/mL))
[1]; CBG 30 mg/kg oral gavage once daily, 1 hr post Rx
  CBG concentration in rat plasma (Day 21): BLQ (Below Limit of Quantification (2.5 ng/mL))
[1]; CBG 30 mg/kg oral gavage once daily, 2 hr post Rx
  CBG concentration in rat plasma (Day 21): BLQ (Below Limit of Quantification (2.5 ng/mL))
[1]; CBG 30 mg/kg oral gavage once daily, 4 hr post Rx
  CBG concentration in rat plasma (Day 21): BLQ (Below Limit of Quantification (2.5 ng/mL))
[1]; CBG 30 mg/kg oral gavage once daily, 8 hr post Rx
  CBG concentration in rat plasma (Day 21): BLQ (Below Limit of Quantification (2.5 ng/mL))
[1]; CBG 30 mg/kg oral gavage once daily, 24 hr post Rx
  CBG concentration in rat plasma (Day 21): BLQ (Below Limit of Quantification (2.5 ng/mL))
[1]; CBG 30 mg/kg oral gavage once daily
  CBG concentration in rat brain tissue (Day 21): BLQ (Below Limit of Quantification (1.0 ng/g)) (5×) and 43.8 ng/g
[1]; CBG 30 mg/kg oral gavage once, 15 min post Rx
  CBG concentration in rat plasma (Day 1): 3.8 ng/mL and 7.6 ng/mL and BLQ (Below Limit of Quantification (2.5 ng/mL)) (4×)
[1]; CBG 30 mg/kg oral gavage once, 30 min post Rx
  CBG concentration in rat plasma (Day 1): 15.2 ng/mL and BLQ (Below Limit of Quantification (2.5 ng/mL)) (5×)
[1]; CBG 30 mg/kg oral gavage once, 1 hr post Rx
  CBG concentration in rat plasma (Day 1): 22.9 ng/mL and 32.3 ng/mL and 32.5 ng/mL and 1.08 ng/mL and 31.2 ng/mL and 35.9 ng/mL
[1]; CBG 30 mg/kg oral gavage once, 2 hr post Rx
  CBG concentration in rat plasma (Day 1): BLQ (Below Limit of Quantification (2.5 ng/mL)) (2×) and 11.0 ng/mL and 26.6 ng/mL and 78.6 ng/mL and 36.0 ng/mL
[1]; CBG 30 mg/kg oral gavage once, 4 hr post Rx
  CBG concentration in rat plasma (Day 1): 24.5 ng/mL and BLQ (Below Limit of Quantification (2.5 ng/mL)) (2×) and 54.3 ng/mL and 62.1 ng/mL and 48.3 ng/mL
[1]; CBG 30 mg/kg oral gavage once, 8 hr post Rx
  CBG concentration in rat plasma (Day 1): BLQ (Below Limit of Quantification (2.5 ng/mL))
[1]; CBG 30 mg/kg oral gavage once, 24 hr post Rx
  CBG concentration in rat plasma (Day 1): BLQ (Below Limit of Quantification (2.5 ng/mL)) (5×) and 2.75 ng/mL
[1]; CBG 100 mg/kg oral gavage once daily, 15 min post Rx
  CBG concentration in rat plasma (Day 21): BLQ (Below Limit of Quantification (2.5 ng/mL)) (4×) and 41.6 ng/mL
[1]; CBG 100 mg/kg oral gavage once daily, 30 min post Rx
  CBG concentration in rat plasma (Day 21): BLQ (Below Limit of Quantification (2.5 ng/mL)) (3×) and 178.5 ng/mL and 122.5 ng/mL
[1]; CBG 100 mg/kg oral gavage once daily, 1 hr post Rx
  CBG concentration in rat plasma (Day 21): BLQ (Below Limit of Quantification (2.5 ng/mL)) (3×) and 225.5 ng/mL and 206.0 ng/mL
[1]; CBG 100 mg/kg oral gavage once daily, 2 hr post Rx
  CBG concentration in rat plasma (Day 21): 307.0 ng/mL and 201.0 ng/mL and 278.0 ng/mL and BLQ (Below Limit of Quantification (2.5 ng/mL)) and 275.5 ng/mL
[1]; CBG 100 mg/kg oral gavage once daily, 4 hr post Rx
  CBG concentration in rat plasma (Day 21): BLQ (Below Limit of Quantification (2.5 ng/mL)) and 171.0 ng/mL and 129.5 ng/mL and 185.0 ng/mL and 905.0 ng/mL and 417.0 ng/mL
[1]; CBG 100 mg/kg oral gavage once daily, 8 hr post Rx
  CBG concentration in rat plasma (Day 21): BLQ (Below Limit of Quantification (2.5 ng/mL)) (2×) and 215.0 ng/mL and 905.0 ng/mL and 3095.0 ng/mL and 373.0 ng/mL
[1]; CBG 100 mg/kg oral gavage once daily, 24 hr post Rx
  CBG concentration in rat plasma (Day 21): BLQ (Below Limit of Quantification (2.5 ng/mL))
[1]; CBG 100 mg/kg oral gavage once daily, female rats
  CBG concentration in rat brain tissue (Day 21), Average: 299.27 ng/g
[1]; CBG 100 mg/kg oral gavage once daily
  CBG concentration in rat brain tissue (Day 21): 53.0 ng/g and 108.0 ng/g and 1460.0 ng/g and 271.0 ng/g and 580.0 ng/g and 46.8 ng/g
[1]; CBG 100 mg/kg oral gavage once daily, male rats
  CBG concentration in rat brain tissue (Day 21), Average: 540.33 ng/g
[1]; CBG 100 mg/kg oral gavage once, 15 min post Rx
  CBG concentration in rat plasma (Day 1): BLQ (Below Limit of Quantification (2.5 ng/mL))
[1]; CBG 100 mg/kg oral gavage once, 30 min post Rx
  CBG concentration in rat plasma (Day 1): BLQ (Below Limit of Quantification (2.5 ng/mL))
[1]; CBG 100 mg/kg oral gavage once, 1 hr post Rx
  CBG concentration in rat plasma (Day 1): BLQ (Below Limit of Quantification (2.5 ng/mL))
[1]; CBG 100 mg/kg oral gavage once, 2 hr post Rx
  CBG concentration in rat plasma (Day 1): BLQ (Below Limit of Quantification (2.5 ng/mL))
[1]; CBG 100 mg/kg oral gavage once, 4 hr post Rx
  CBG concentration in rat plasma (Day 1): BLQ (Below Limit of Quantification (2.5 ng/mL)) (4×) and 119.0 ng/mL and 143.0 ng/mL
[1]; CBG 100 mg/kg oral gavage once, 8 hr post Rx
  CBG concentration in rat plasma (Day 1): BLQ (Below Limit of Quantification (2.5 ng/mL))
[1]; CBG 100 mg/kg oral gavage once, 24 hr post Rx
  CBG concentration in rat plasma (Day 1): BLQ (Below Limit of Quantification (2.5 ng/mL))
[1]; oral gavage 10-100 mg/kg, Day 1 and Day 21
  concentration of CBG in plasma (in words): low or below the level of quantitation (BLQ)
[1]; oral gavage, Day 21
  CBG in brain (in words): not detected
[1]; upon oral administration
  first pass metabolism to the glucuronide (in words): very high
All the UGTs combined
  activity of UGT2B7 relative to UGT1A9: approximately 1/10
  share of the activity for all the UGTs combined represented by UGT1A9: ~80%
[2]
  metabolites observed (number): Seven
[3]
  metabolites observed (number): four
[4]
  metabolites observed (number): four
